The source of these data is patent publication US10759865B2, “Treatment of diabetes mellitus” (priority 2017, dated 2020).

For this experiment, the system named is patient diagnosed with IDDM. Description: treatment of a IDDM patient, blood IDDM markers over time. In kind it is in vivo, human. As to the method:
A patient diagnosed with IDDM was treated with 8 units of exogenous long-acting insulin per day (administered in the evening) and 1 unit of short-acting insulin per 6 grams of carbohydrate food intake (administered before each meal).
Specific stimulation high-carb diet was introduced occasionally to monitor the patient's pancreatic ability to respond to the glycemic demands.
Each IVIG dose was administered in one continuous infusion session. From week 16 to week 42, the patient was also treated with alpha one antitrypsin.
Throughout the patient's treatment, the patient's blood was drawn at the time points indicated in Tables 1-2 below, and analyzed by established testing laboratories with respect to standard IDDM blood parameters (see Tables 1-2, top row of each table listing the markers assayed; the numerical values in parenthesis after some of the markers indicate normal reference levels).
The patient was dosed at 750 mg intravenously on weeks 87, 88, 89 and 90.
Tables 1 and 2 describe the same treatment but include data points with respect to different markers tested.

On to `C[C@@H]1CCN(C(=O)CC#N)C[C@@H]1N(C)c1ncnc2[nH]ccc12` [Tofacitinib], for which the “overall weight and muscle mass” value (about 10 months post initiation of tofacitinib treatment) was “gained overall weight and muscle mass”. The auto-antibody blood titers entry (about 10 months post initiation, tofacitinib before IVIG) is given as “no further change”. Under “human, in vivo”, the “combination effect of tofacitinib treatment and IVIG treatment” value is reported as “synergistic effect”. In addition, the “need for short-acting insulin” value (starting three days post initiation, 5 mg twice-daily (free base)) was “did not receive any short-acting insulin”. Besides, the “need for exogenous insulin” value (starting three weeks post initiation, 5 mg twice-daily (free base)) is “did not receive any exogenous insulin”. Further, the “pancreatic islet-cell auto-antibodies and anti-insulin auto-antibodies” value (upon treatment with tofacitinib (Table 1)) is “reduction”.
